# Values quoted from earlier work in patent US6365128B1, “Monitoring gastrointestinal function to guide care of high risk patients” (Medical Defence Technologies, LLC, priority 1998, dated 2002).
# Conditions: in vivo
smiles,measurement,value
"CSCC[C@H](NC(=O)[C@H](Cc1c[nH]c2ccccc12)NC(=O)CCNC(=O)OC(C)(C)C)C(=O)N[C@@H](CC(=O)O)C(=O)N[C@@H](Cc1ccccc1)C(N)=O [Pentagastrin, pentagastrin]",half life,approximately 10 minutes
